Experimental findings from patent publication US11407725B2 (The Board of Trustees of the University of Illinois, priority 2018, dated 2022) are described below.

Where two headings read alike, the source gives them in different places.

Data set [1] has as its system e-CSC and non-CSC melanoma lung metastases. The experiment in a line: Ex vivo lung metastases imaging. It counts as in vivo, mice. The conditions noted are these: lungs perfused ex vivo, day 7 and 11. The method, then:
Six to eight-week-old female C57BL/6J mice were purchased from Jackson Laboratory. Experimental metastases were established by injecting 2×10^5 melanoma cells via lateral tail vein injection. Mice were euthanized at either 7- or 11-days post injection. Immediately after euthanization, their lungs were excised and perfused with about 1 mL of either 15 μM AlDeSense AM or 15 μM Ctrl-AlDeSense AM in PBS. Outer portions of the lungs were rinsed in 15 mL of PBS to remove blood or excess dyes. After 2 hours incubation at room temperature (25° C.), the lungs were imaged on the IVIS spectrum imaging system (Perkin Elmer). Data was processed using Living Image software (Version 4.1).

Data set [2] relates to e-CSC and non-CSC B16F0 tumors. The data set is described as follows: In vivo melanoma tumor fluorescence imaging. To be noted: 1 and 2 weeks. Set-up: species or system mice.
Data set [3] has as its system K562 cells. The experiment in a line: Trypan blue cytotoxicity / viability assay. The class given is cell-based. Here is the method: K562 cells were plated in a 96-well plate with 50,000 cells per well. Each well was filled to a final volume of 100 μL IMDM media with 0.25% DMSO. Wells were tested using red-AlDeSense or Ctrl-red-AlDeSense (1 μM and 5 μM each) or using a DMSO control. After 6-, 12-, and 24-hour incubation periods at 37° C. and 5% CO2, a 10 μL sample was removed from each condition and combined with 10 μL 0.4% w/v trypan blue in PBS. Samples were incubated for 3 minutes at room temperature before being loaded on a hemocytometer where live and dead cells were counted. Conditions were tested in triplicate for each time point. Samples were analyzed on an EVOS digital inverted microscope using transmitted white light for brightfield imaging and the Cy5 filter cube for trypan blue visualization.
K562 cells were plated in a 96-well plate at a density of 500,000 cells/mL in full IMDM media supplemented with either 1 μM or […] AlDeSense AM. Equivalent samples were supplemented with 1 μM or […] as a vehicle control. At 6, 12, and 24 hours, a 10 μL sample was removed from each of the samples and mixed 1:1 with a 0.4% wt/volume trypan blue solution in PBS. Samples were incubated for 1 minute at room temperature before being loaded onto a hemocytometer where live and dead cells were counted. Each sample was made in triplicate for each time point.

A short description of data set [4]: Log D7.4. The class given is physicochemical. The conditions noted are these: pH 7.4.
Data set [5] is described as follows: Photophysical properties (absorbance, emission, extinction coefficient, quantum yield). It counts as physicochemical. To be noted: for Quantum Yield: Probes 1-8.
A short description of data set [6]: pKa determination (pH profile of fluorescence). The conditions noted are these: Britton-Robinson buffer.
Protocol: The fluorescence of 1 μM of each compound was measured in 40 mM Britton-Robinson buffer at pH 2-9 in 0.5 pH intervals. Each measurement was performed in triplicate. […] Error bars are ±standard deviation (SD).
Data set [7] addresses T1, ALDH1A1 (Homo sapiens, UniProt P00352).
T1 construct: made in house
T1 sequence (P00352 1-501): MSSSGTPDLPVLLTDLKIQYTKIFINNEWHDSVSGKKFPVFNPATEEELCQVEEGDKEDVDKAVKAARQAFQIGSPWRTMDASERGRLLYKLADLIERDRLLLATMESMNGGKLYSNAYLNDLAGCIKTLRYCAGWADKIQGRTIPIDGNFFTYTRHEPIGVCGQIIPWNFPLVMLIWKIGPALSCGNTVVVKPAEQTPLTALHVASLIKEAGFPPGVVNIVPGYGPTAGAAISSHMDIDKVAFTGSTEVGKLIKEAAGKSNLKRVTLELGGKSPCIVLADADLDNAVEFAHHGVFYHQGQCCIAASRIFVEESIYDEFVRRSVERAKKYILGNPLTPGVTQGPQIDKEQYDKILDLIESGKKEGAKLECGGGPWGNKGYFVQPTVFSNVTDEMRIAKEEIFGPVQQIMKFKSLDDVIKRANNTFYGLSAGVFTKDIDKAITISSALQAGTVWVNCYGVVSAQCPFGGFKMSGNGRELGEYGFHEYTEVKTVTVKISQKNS
The experiment in a line: Fluorescence turn-on of AlDeSense with recombinant ALDH1A1. It counts as biochemical. The conditions noted are these: fluorescent enhancement when treated with ALDH1A1; 1 μM probe. The method, then:
Activation of AlDeSense was assessed using 20 units of each ALDH isoform. Activity was determined by activity measurements using each isoform's preferred substrate (1 unit=1 μmol substrate turned over/mol enzyme/min). Further details are in the supplementary information. All enzymatic reactions were performed in 50 mM triethanolamine buffer (pH 7.4, Thermo Fisher) with 2.5 mM NAD+(Alfa Aesar) and 5% v/v DMSO (Thermo Fisher) in a 1 mL quartz cuvette at room temperature.
AlDeSense activation was determined using fluorescence. Immediately before measurement, AlDeSense (1 μM) was added to a quartz cuvette. After vigorous mixing, the reaction was monitored at room temperature for 15 min. Fluorescence spectra were acquired according to following parameters: λex=498 nm, and emission range=505-580 nm. All scans were normalized to the signal from AlDeSense in 50 mM TEA and 2.5 mM NAD+(without enzyme). Endpoint measurements at 15 min were performed in triplicate and reported as the averages±standard deviation.

Data set [8] concerns the target T1, ALDH1A1. The data set is described as follows: ALDH isoform selectivity of red probes: ALDH1A1. To be noted: for Enzyme Activity 1A1 / Enzymatic Turn On: Table 2; for Enzymatic Turn On: ALDH1A1, 2 μM dye. It counts as biochemical. Here is the method:
(§1) Each ALDH isoform was added to a 50 mM triethanolamine solution (pH 7.4) containing 2.0 mM NAD^+ and 100 μM substrate at room temperature. Benzaldehyde was the substrate for ALDH3A1. Propanal was the substrate for all other isoforms. ALDH isoform activity was determined by monitoring the rate of NADH production through the increase in absorbance at 340 nm (ε=6220 M^−1cm^−1). For these assays, 1 unit is defined as the amount of enzyme that catalyzes the conversion of […] per minute. For every combination of dye and enzyme, 2 μM dye was preincubated with 2.0 mM NAD^+ in 50 mM triethanolamine solution (pH 7.4). The reaction was initiated by addition of 1 unit of ALDH. Dyes were excited at 590 nm, and fluorescence was measured continuously at 610 nm.

Data set [9] addresses T2, ALDH1A3 (Homo sapiens, UniProt P47895).
T2 construct: made in house
T2 sequence (P47895 1-512): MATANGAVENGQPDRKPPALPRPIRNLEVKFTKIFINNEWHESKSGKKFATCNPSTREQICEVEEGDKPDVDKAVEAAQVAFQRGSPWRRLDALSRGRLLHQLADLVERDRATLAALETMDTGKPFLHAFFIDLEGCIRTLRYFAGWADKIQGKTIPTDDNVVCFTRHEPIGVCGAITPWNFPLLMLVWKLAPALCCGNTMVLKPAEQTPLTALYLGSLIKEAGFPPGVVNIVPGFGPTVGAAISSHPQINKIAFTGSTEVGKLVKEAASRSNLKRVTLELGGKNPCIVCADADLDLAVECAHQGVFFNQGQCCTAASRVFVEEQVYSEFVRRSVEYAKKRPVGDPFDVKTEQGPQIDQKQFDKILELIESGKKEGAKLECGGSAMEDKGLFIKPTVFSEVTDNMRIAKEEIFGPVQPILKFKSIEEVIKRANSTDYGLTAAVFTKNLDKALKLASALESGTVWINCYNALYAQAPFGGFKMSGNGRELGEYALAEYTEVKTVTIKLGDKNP
The data set is described as follows: ALDH isoform selectivity of red probes: ALDH1A3. The class given is biochemical. The conditions noted are these: for Enzyme Activity 1A3: Table 2. The method, then: as §1

Data set [10] is described as follows: Stability of the fluorophore against water-mediated decomposition. It counts as physicochemical.

On to `CC(=O)c1ccc(-c2c3cc(F)c(=O)cc-3oc3cc(O)c(F)cc23)c(C)c1` [Ctrl-AlDeSense], for which the “fluorescence of e-CSC lungs versus non-CSC lungs” value in [1] was “not statistically different”. In addition, the “signal in e-CSC versus non-CSC tumors” value in data set [2] is recorded as “did not show increased signal”. Further, the “toxicity in cell viability assay” value in [3] (K562 cells, 6, 12 and 24 hours) was “non-toxic”. Further, the logD (in general, lipophilicity at a set pH, counting ionised and neutral species) in data set [4] came to 0.87. Moreover, in [5], the ε was 68000 M⁻¹ cm⁻¹. In data set [5] (Table 1), this compound registered a λcm of 518 nm. In [5] (maximum absorbance), this compound had a λabs of 496 nm. In data set [5] (prior to activation), this compound returned a ΦF of 0.039. Further, the pKa (usually the pH at which an ionisable group is half protonated) in data set [6] was 4.47. In addition, the “Turn-on (fold)” value in data set [7] is reported as 0 fold.
Consider `CC(=O)c1cc(F)c(C2=C3C=CC(=O)C=C3[Si](C)(C)c3cc(O)ccc32)c(C)c1F` [Ctrl-red-AlDeSense, 10-(4-A cetyl-3,6-difluoro-2-methylphenyl)-7-hydroxy-5,5-dimethyldibenzo[b, e]silin-3(5H)-one], for which the “toxicity in cell viability assay” value in [3] is listed as “nontoxic”.
As to `Cc1cc(C=O)ccc1C1=C2C=CC(=O)C=C2[Si](C)(C)c2cc(O)ccc21` [Probe 1, 4-(7-Hydroxy-5,5-dimethyl-3-oxo-3,5-dihydrodibenzo[b, e]silin-10-yl)-3-methylbenzaldehyde], in data set [8], the “turn-on response when treated with ALDH1A1” value (shortened to “turn-on response when treated”) is on record as 1.7 fold, the “Enzyme Activity 1A1” value was “High” and the “Enzymatic Turn On” value turned out to be 1.7. For the same compound, the “Quantum Yield” value in [5] was 0.32. For the same compound, in [9], the “selectivity ALDH1A1 versus ALDH1A3” value is on record as “no longer selective for ALDH1A1” and the “Enzyme Activity 1A3” value was “Medium”.
Regarding `C[Si]1(C)C2=CC(=O)C=CC2=C(c2ccc(C=O)cc2F)c2ccc(O)cc21` [Probe 2, 3-Fluoro-4-(7-hydroxy-5,5-dimethyl-3-oxo-3,5-dihydrodibenzo[b, e]silin-10-yl)benzaldehyde], the “stability against water-mediated decomposition of the fluorophore” value in data set [10] is on record as “rapid decomposition”.
Take `C[Si]1(C)C2=CC(=O)C=CC2=C(c2ccc(C=O)cc2[N+](=O)[O-])c2ccc(O)cc21` [Probe 4, 4-(7-Hydroxy-5,5-dimethyl-3-oxo-3,5-dihydrodibenzo[b, e]silin-10-yl)-3-nitrobenzaldehyde]: the “Quantum Yield” value in data set [5] is 0.00.
Regarding `Cc1cc(C=O)c(F)cc1C1=C2C=CC(=O)C=C2[Si](C)(C)c2cc(O)ccc21` [Probe 5, 2-Fluoro-4-(7-hydroxy-5,5-dimethyl-3-oxo-3,5-dihydrodibenzo[b, e]silin-10-yl)-5-methylbenzaldehyde], in data set [8], the “turn-on response when treated” value came out at 2.6 fold, the “Enzyme Activity 1A1” value was “High” and the “Enzymatic Turn On” value was 2.6. Moreover, the “Quantum Yield” value in [5] came out at 0.21. Further, in data set [9], the “Enzyme Activity 1A3” value is listed as “Low”.
`C[Si]1(C)C2=CC(=O)C=CC2=C(c2c(F)cc(C=O)cc2F)c2ccc(O)cc21` [Probe 6, 3,5-Difluoro-4-(7-hydroxy-5,5-dimethyl-3-oxo-3,5-dihydrodibenzo[b, e]silin-10-yl)benzaldehyde]: in [8], the “turn-on response when treated” value is 3.9 fold, the “Enzyme Activity 1A1” value is reported as “High” and the “Enzymatic Turn On” value came to 3.9. In addition, the “stability against water-mediated decomposition of the fluorophore” value in [10] is recorded as “prevent water-mediated decomposition”. In [5], the “Quantum Yield” value came to 0.13. In addition, in [9], the “selectivity ALDH1A1 versus ALDH1A3” value is “exhibited cross-reactivity with ALDH1A3” and the “Enzyme Activity 1A3” value is given as “High”.
As for `Cc1c(F)c(C=O)cc(F)c1C1=C2C=CC(=O)C=C2[Si](C)(C)c2cc(O)ccc21` [Probe 8, 2,5-Difluoro-4-(7-hydroxy-5,5-dimethyl-3-oxo-3,5-dihydrodibenzo[b, e]silin-0-yl)-3-methylbenzaldehyde], in [8], the “Enzyme Activity 1A1” value is given as “High” and the “Enzymatic Turn On” value came to 3.1. Moreover, the “Quantum Yield” value in data set [5] came to 0.20. Also, in data set [9], the “selectivity ALDH1A1 versus ALDH1A3” value is listed as “selectivity was eroded” and the “Enzyme Activity 1A3” value is “Medium”.
For `Cc1cc(C(=O)O)ccc1-c1c2cc(F)c(=O)cc-2oc2cc(O)c(F)cc12` [oxidized AlDeSense], in data set [3] (K562 cells, 6, 12 and 24 hours), the “toxicity in cell viability assay” value is “non-toxic”.
